Measured values from PubChem BioAssay (NCI).
Several values for one entry are separate records, joined by “and”; a condition that tells them apart may be missing. Equal entries are not always repeated.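 A five-concentration, 48-hour dose response in 96-well plates underlies each endpoint, interpolated linearly between surrounding concentrations. The concentration for 50% growth inhibition is given as GI50. TGI: concentration producing complete growth inhibition.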

Columns and labels:
Experiment in all cases: NCI tumour cell line growth inhibition, 48 h
[1] = tested on: K-562 leukemia
[2] = tested on: MCF7 breast
[3] = tested on: SR leukemia
[4] = tested on: HS 578T breast
[5] = tested on: SNB-19 CNS
[6] = tested on: OVCAR-3 ovarian
[7] = tested on: SW-620 colon
[8] = tested on: M14 melanoma
[9] = tested on: UO-31 renal
[10] = tested on: TK-10 renal

| SMILES | GI50 [1] | TGI [1] [µM] | GI50 [2] [µM] | TGI [2] | GI50 [3] [µM] | TGI [3] | GI50 [4] | TGI [4] | GI50 [5] [µM] | TGI [5] [µM] | GI50 [6] [µM] | TGI [6] | GI50 [7] | TGI [7] [µM] | GI50 [8] | TGI [8] [µM] | GI50 [9] | TGI [9] | GI50 [10] [µM] | TGI [10] [µM] |
| --- | --- | --- | --- | --- | --- | --- | --- | --- | --- | --- | --- | --- | --- | --- | --- | --- | --- | --- | --- | --- |
| Oc1ccc2ccccc2c1/C=N\Nc1ccccn1 | 0.426 µM | > 100 | 0.895 | > 34 µM | 0.357 | > 100 µM | 1.4 µM | > 34.5 µM | 1.33 | > 100 | 0.349 | > 56.8 µM | 0.588 µM | > 100 | 0.441 µM | 5.34 | 0.114 µM | 1.31 µM | 4.85 | > 100 |
| CCOC1NC(=O)Oc2ccccc21 (centres undefined) | – | > 100 | – | > 100 µM | – | > 100 µM | – | > 100 µM | – | > 100 | – | > 100 µM | – | > 100 | – | > 100 | – | > 100 µM | – | > 100 |
| COC(=O)c1oc2c(C(=O)/C=C/c3ccc(OC)cc3)c(OCCCN3CCCCC3)ccc2c1C | 2.6 µM | – | 1.15 | 2.5 µM | 1.45 | 3.78 µM | 2.58 µM | – | 2.1 | 8.92 | 1.63 | 3.72 µM | 1.38 µM | 3.03 | 1.61 µM | 3.59 | 1.6 µM | 4.55 µM | 2.04 | 5.71 |
| CN(C)/[N+]([O-])=N/Oc1cc(Nc2ccc(C(=O)O)cc2)c([N+](=O)[O-])cc1[N+](=O)[O-] | 38.2 µM | > 100 | 25.2 | 69.7 µM | 51.3 | > 100 µM | 21.7 µM | 57.3 µM | 18.2 | 35.3 | – | – | 45.4 µM | > 100 | – | – | 25.6 µM | 67.3 µM | 18.9 | 72.7 |
| O=[N+]([O-])c1ccc2[nH]cc(-c3c4ccccc4cc4[nH]c5ccc([N+](=O)[O-])cc5c34)c2c1 | 3.5 µM | > 100 | 1.65 | 3.73 µM | 2.86 | > 100 µM | 2.35 µM | 8.19 µM | 2.88 | 9.13 | 2.57 | 7.32 µM | 2.73 µM | 8.84 | 1.67 µM | 3.22 | 1.76 µM | 5.1 µM | 2.59 | 6.79 |
| COc1cc2c(/C=C3\C(=O)Nc4ccc(Br)cc43)c(Cl)n(C)c2cc1C | 1.96 µM | > 29.2 | 0.322 | 6.53 µM | 1.42 | – | 0.517 µM | 3.46 µM | 2.57 | 48.8 | 1.56 | 3.56 µM | 3.09 µM | 15.4 | 1.8 µM | 6.01 | 2.46 µM | 11.3 µM | 2.72 | 9.19 |
| O=C(CC1C(=O)Nc2ccccc2S1=O)Nc1cccc(Cl)c1 (centres undefined) | – | 29.2 | – | 29.9 µM | – | 22.1 µM | – | > 100 µM | – | > 88.9 | – | > 79.2 µM | – | > 100 | – | > 65 | – | > 89.8 µM | – | > 100 |
| COC(=O)c1ccc2c(c1)nc(-c1ccc(Cl)cc1)n2-c1cc(C(C)(C)C)[nH]n1 | 4.2 µM | > 100 | 2.79 | 12.3 µM | 3.23 | > 100 µM | 1.72 µM | 7.16 µM | 4.31 | > 100 | 2.35 | 6.13 µM | 3.24 µM | > 100 | 2.9 µM | 8.22 | 3.35 µM | 44.1 µM | 6.94 | > 100 |
| COc1ccc(Cc2ccccc2C(=O)O)c2ccccc12 | – | > 100 | – | > 100 µM | – | > 100 µM | – | 57.8 µM | – | > 100 | – | 47.1 µM | – | > 100 | – | > 100 | – | > 100 µM | – | 50.2 |
| Cc1nc2cc(O)c(O)cc2cc1Oc1ccc(NC(=O)Nc2ccc(Cl)c(Cl)c2)cc1 | 6.93 µM | 29.6 | 8.71 | > 32.5 µM | 1.56 | 12.3 µM | 12.8 µM | > 32.5 µM | 10.1 | > 32.5 | 8.52 | 19.9 µM | 4.8 µM | > 32.5 | 5.97 µM | 13.8 | 6.97 µM | 14.9 µM | 14.2 | > 32.5 |
| CC(C)(C)NNc1c([N+](=O)[O-])cnn(-c2ccccc2)c1=O | – | 2.02 | – | 14.1 µM | – | 4.67 µM | – | 26.1 µM | – | 22.7 | – | 5.54 µM | – | 3.41 | – | 4.88 | – | 12.8 µM | – | 36.8 |
| COc1ccccc1Nc1nc(-c2cc3cccc(C(F)(F)F)c3oc2=O)cs1 | 0.0538 µM | > 100 | 0.0574 | > 100 µM | 0.084 | > 100 µM | 0.277 µM | > 81.2 µM | 1.15 | > 100 | 0.0624 | 0.203 µM | 0.144 µM | > 100 | 0.111 µM | – | 0.527 µM | > 57.1 µM | 13.5 | 81.2 |
| Cn1c(=O)c(F)c(Nc2ccc(I)cc2F)c2c(=O)n(C[C@@H](O)CO)cnc21 | 0.172 µM and 0.112 µM | > 84 | 21 | 75 µM and > 4.05 µM | 5.04 | 36.4 µM and > 10 µM | 5.17 µM and 1.21 µM | 54.6 µM and > 3.97 µM | 4.73 | > 100 | 13.6 | 40.4 µM and > 3.85 µM | < 0.01 µM and 0.00521 µM | > 64.1 | < 0.01 µM and 0.00175 µM | 0.0211 | 0.304 µM and 0.0568 µM | 15.4 µM and > 4.09 µM | – | 26.4 |
| Fc1ccc(Nc2nc(Nc3ccc(-c4nc5ccccc5[nH]4)cc3)nc(N3CCCC3)n2)cc1 | 2.31 µM | 5.35 | 1.9 | 5.22 µM | 0.927 | 6.5 µM | 2.16 µM | 5.82 µM | 3.93 | 19.1 | 2.75 | 6.61 µM | 1.87 µM | 3.7 | 1.89 µM | 3.95 | 3.13 µM | 14.4 µM | 17.1 | 31.3 |
| COc1ccc(C(=O)Nc2cccc(C3CC(=O)c4c(cc(OC)c(OC)c4OC)O3)c2)cc1 (centres undefined) | 0.367 µM | > 100 | 0.466 | 56.4 µM | 0.171 | > 100 µM | 2 µM | 42.4 µM | 1.01 | > 100 | 0.337 | 39.7 µM | 0.691 µM | > 100 | 0.534 µM | 41.7 | 1.33 µM | > 100 µM | 7.28 | > 100 |
| COc1ccc(/C=C(/C(=O)N2CCNCC2)c2cc(OC)c(OC)c(OC)c2)cc1O | 1.6 µM | > 100 | 1.34 | > 100 µM | 0.642 | > 100 µM | 2.42 µM | 30 µM | 3.91 | > 100 | 2.45 | 7.1 µM | 3.69 µM | > 100 | 3.83 µM | > 100 | 55.5 µM | > 100 µM | 79.4 | > 100 |
| CN(C)CCn1cc(-c2ccc3c(Nc4ccc(CC(=O)Nc5cccc(F)c5)cc4)ncnc3c2)cn1 | 2.72 µM | > 10 | 1.21 | 3.55 µM | 1.53 | > 10 µM | 1.92 µM | > 10 µM | 1.34 | 5.39 | 1.6 | 3.48 µM | 1.05 µM | 2.91 | 1.49 µM | 3.26 | 5.67 µM | > 10 µM | 1.62 | 4.21 |
| O=C(Nc1ccccc1Cl)c1ccc(NC2=C(Cl)C(=O)N(Cc3ccccc3)C2=O)cc1 | 21.8 µM | 49.3 | 17.2 | 36 µM | 15.7 | 41.5 µM | 32.7 µM | 69.3 µM | > 100 | > 100 | 18.7 | 36.6 µM | 25.4 µM | 58.1 | 79.4 µM | > 100 | > 100 µM | > 100 µM | 46.7 | > 100 |
| Cn1c(=O)c(Cc2ccc(F)cc2F)cc2cnc(NC3CCOCC3)nc21 | > 20.1 µM | > 25 | > 25 | > 25 µM | > 25 | > 25 µM | > 23.6 µM | > 25 µM | 24.3 | > 25 | > 25 | > 25 µM | > 25 µM | > 25 | > 25 µM | > 25 | 11.5 µM | > 25 µM | 14.5 | > 25 |
| O=C1c2cc3c(cc2-c2c1c1ccc([N+](=O)[O-])cc1c(=O)n2CCCCl)OCO3 | – | > 100 | 0.333 | – | 0.0158 | 27.8 µM | > 100 µM | > 100 µM | 0.138 | > 100 | 4.8 | > 100 µM | 0.263 µM | > 100 | 1.52 µM | > 100 | 0.307 µM | > 100 µM | > 54.3 | > 100 |
| O=Cc1ccc(C(F)(F)F)cc1.[C-]#[O+].[C-]#[O+].[C-]#[O+].[Cr] | 26.2 µM | 97.6 | 24.7 | > 100 µM | 15.1 | 46.6 µM | 24.6 µM | 75.9 µM | 26.7 | 89.6 | 25.4 | > 100 µM | 30.9 µM | > 100 | 12.9 µM | 37 | 16 µM | 48.5 µM | 25.9 | > 100 |
| Cn1c2ccccc2c2c3c(c4c5ccccc5n(CCCCCC#N)c4c21)C(=O)N(O)C3=O | 0.71 µM | > 100 | 0.299 | 27.9 µM | 0.333 | > 100 µM | 3.25 µM | 41.9 µM | 0.545 | > 100 | 1.29 | 7.9 µM | 0.732 µM | > 100 | 0.39 µM | > 100 | 0.374 µM | 1.97 µM | 3.94 | 40 |
| CCCNc1nc(-c2ccc(OC)cc2)nc2ccccc12 | > 100 µM | > 100 | 19.5 | > 100 µM | 13.8 | > 100 µM | 17.9 µM | 42.9 µM | 34.8 | > 100 | 11.8 | 26.9 µM | – | – | 10.6 µM | 24.7 | 19.1 µM | > 100 µM | 13.2 | 26.7 |
| C[n+]1c2ccccc2c(NC2CCNCC2)c2[nH]c3ccccc3c21 | – | – | 0.231 | 2.2 µM | 1.7 | > 100 µM | 0.116 µM | 0.82 µM | 0.269 | 2.2 | 0.969 | 5.87 µM | 1.23 µM | 6.73 | 2.41 µM | 13.4 | 13.9 µM | 43.7 µM | 2.33 | 8.53 |
| CCOC(=O)C(=Cc1ccccc1Br)C(=O)OCC | – | 13.4 | – | > 100 µM | – | 0.723 µM | – | 30.9 µM | – | 6.01 | – | 4.7 µM | – | – | – | 2.48 | – | – | – | 8.7 |
| Cn1cccc1-c1cc(-c2ccc(Br)cc2)nc(N)c1C#N | > 100 µM | > 100 | > 100 | > 100 µM | 3.42 | 20.4 µM | > 100 µM | > 100 µM | > 100 | > 100 | > 100 | > 100 µM | > 100 µM | > 100 | – | – | > 100 µM | > 100 µM | > 100 | > 100 |
| NS(=O)(=O)c1ccc(-n2nc(-c3ccc(Cl)cc3)cc2C2=CC(=O)C=CC2=O)cc1 | 19.4 µM | 74.1 | 21.1 | 69.9 µM | 26.7 | > 100 µM | 23.8 µM | 72.6 µM | – | – | 22.7 | 42.9 µM | 19.8 µM | 48.3 | 23 µM | 42.8 | 41.7 µM | > 100 µM | 12.5 | 28.3 |
